Experimental data as given in patent US5641659A, “α-l-rhamnosidase for obtaining rhamnose, a process for its preparation and its use” (priority 1992, dated 1997).

System: α-L-rhamnosidase from Penicillium sp. DSM 6826
Assay: Influence of different substances on the activity of the purified α-L-rhamnosidase
Assay type: biochemical
Conditions: control = 100
Method: p-Nitrophenyl-α-L-rhamnopyranoside is used as the substrate for detecting the α-L-rhamnosidase activity. 10 mg of this substrate are dissolved in 10 ml of ammonium acetate buffer (pH 5.5, 50 mM). 100 μl of culture filtrate or cell lysates are added to 900 μl of this solution and the mixture is then incubated at 40° C. After 0, 3, 6, 9 and 12 minutes, 200 μl are removed and mixed with 800 μl of 200 mM borate buffer, pH 9. The release-of p-nitrophenol is monitored photometrically at 410 nm; naringinase (following Romero et al. Anal. Biochem. 149 566-571 (1985)) was used as the control.
The investigations summarized in the table below were carried out using the purified enzyme.

C[C@@H]1OC(O)[C@H](O)[C@H](O)[C@H]1O (single isomer, unassigned) [L-Rhamnose, 6-deoxy-L-mannose]
% activity (substance at 0.5 M): 51%
% activity (substance at 1.0 M): 39.5%
% activity (substance at 1.5 M): 26.4%

[Ca+2].[Cl-].[Cl-] [CaCl2]
% activity (substance at 20 mM): 127%

[Cl-].[Cl-].[Co+2] [CoCl2]
% activity (substance at 2 mM): 41%

[Cl-].[Cs+] [CsCl]
% activity (substance at 2 mM): 96%

[Cl][Cu][Cl] [CuCl2]
% activity (substance at 0.5 mM): 40%

O=C(O)CN(CCN(CC(=O)O)CC(=O)O)CC(=O)O [EDTA, reference compound]
% activity (substance at 10 mM): 22%

O=C(O)CN(CCOCCOCCN(CC(=O)O)CC(=O)O)CC(=O)O [EGTA, reference compound]
% activity (substance at 10 mM): 60%

O=S(=O)([O-])[O-].[Fe+2] [FeSO4]
% activity (substance at 0.5 mM): 100%

[Cl-].[K+] [KCl]
% activity (substance at 100 mM): 69%

O=S(=O)([O-])[O-].[Mg+2] [MgSO4]
% activity (substance at 2 mM): 106%

[Cl][Mn][Cl] [MnCl2]
% activity (substance at 2 mM): 27%

[Cl-].[Cl-].[Zn+2] [ZnCl2]
% activity (substance at 2 mM): 65%
